# Test results taken from US7259004B1, “Endophytic streptomycetes from higher plants with biological activity” (Montana State University, priority 2002, dated 2007).
# Assays:
# [1] = test system: Bacillus anthracis K8902; assay type: cell-based; settings: 10 micrograms per disk; ciprofloxacin 5, vancomycin 30 micrograms per disk; 35° C.
# [2] = test system: Cryptococcus neoformans; assay: microbroth dilution MIC
# [3] = test system: Staphylococcus aureus ATCC 33591 (MRSA); assay: microbroth dilution MIC; assay type: cell-based; settings: second listing in Table 4
# [4] = test system: brine shrimp; assay: brine shrimp assays; settings: preliminary assays
# [5] = test system: E. faecalis 29212; assay: microbroth dilution MIC; assay type: cell-based, Enterococcus faecalis
# [6] = test system: Enterococcus faecalis ATCC 51299; assay: disk diffusion assay; assay type: cell-based; settings: 10 micrograms per disk; ciprofloxacin 5, vancomycin 30 micrograms per disk; 35° C.
# [7] = test system: S. epidermis 12228; assay: microbroth dilution MIC; assay type: cell-based, Staphylococcus epidermidis
# [8] = test system: M. tuberculosis H37Rv (ATCC 25618) (drug sensitive); assay: IC50 in Mycobacteria 7H11 agar; assay type: cell-based, Mycobacterium tuberculosis; settings: 7H11 agar with 10% OADC
# [9] = test system: Cryptococcus neoformans ATCC 32045; assay: disk diffusion assay; assay type: cell-based; settings: 10 micrograms per disk; 35° C.
# [10] = test system: Candida parasilosis ATCC 22019; assay: disk diffusion assay; assay type: cell-based, Candida parapsilosis; settings: 10 micrograms per disk; 35° C. Note: key: R = resistant.
# [11] = test system: Escherichia coli ATCC 25922; assay: disk diffusion assay; assay type: cell-based; settings: 10 micrograms per disk; penicillin G 10 units per disk; 35° C. Note: key: R = resistant.
# [12] = test system: Candida tropicalis ATCC 750; assay: disk diffusion assay; assay type: cell-based; settings: 10 micrograms per disk; 35° C. Note: key: R = resistant.
# [13] = test system: Acinetobacter sp. ATCC 49137; assay: disk diffusion assay; assay type: cell-based; settings: 10 micrograms per disk; ciprofloxacin 5, vancomycin 30 micrograms per disk; grown at 30° C.
# [14] = test system: S. epidermis ATCC 12228; assay: disk diffusion assay; assay type: cell-based, Staphylococcus epidermidis; settings: 10 micrograms per disk; 35° C.
# [15] = test system: Candida parasdosis ATCC 90018; assay: disk diffusion assay; assay type: cell-based, Candida parapsilosis; settings: 10 micrograms per disk; 35° C. Note: key: R = resistant.
# [16] = test system: Enterococcus faecalis ATCC 29212; assay: disk diffusion assay; assay type: cell-based; settings: 10 micrograms per disk; ciprofloxacin 5, vancomycin 30 micrograms per disk; 35° C.
# [17] = test system: Streptococcus pneumoniae 49619; assay: microbroth dilution MIC; assay type: cell-based
# [18] = test system: Neisseria gonnorhea ATCC 49226; assay: disk diffusion assay; assay type: cell-based; settings: 10 micrograms per disk; ciprofloxacin 5, vancomycin 30 micrograms per disk; GC agar with 1% growth supplement with 5% CO2
# [19] = test system: Staphylococccus simulans 11631; assay: microbroth dilution MIC; assay type: cell-based, Staphylococcus simulans
# [20] = test system: Candida albicans ATCC 90028; assay: disk diffusion assay; assay type: cell-based; settings: 10 micrograms per disk; 35° C. Note: key: R = resistant.
# [21] = test system: Bacillus subtilis; assay: microbroth dilution MIC
# [22] = test system: Staphylococccus aureus 27734; assay: microbroth dilution MIC; assay type: cell-based, Staphylococcus aureus
# [23] = test system: Saccharomyces cerevisiae ATCC 9763; assay: disk diffusion assay; assay type: cell-based; settings: 10 micrograms per disk; 35° C. Note: key: R = resistant.
# [24] = test system: Vibrio fischeri PIC 345; assay: disk diffusion assay; assay type: cell-based; settings: 10 micrograms per disk; ciprofloxacin 5, vancomycin 30 micrograms per disk; 35° C.
# [25] = test system: Listeria monocytogenes 19114; assay: microbroth dilution MIC; assay type: cell-based
# [26] = test system: Candida glabrata ATCC 2001; assay: disk diffusion assay; assay type: cell-based; settings: 10 micrograms per disk; 35° C. Note: key: R = resistant.
# [27] = test system: Enterococcus faecalis ATCC 51299 (VRE); assay: microbroth dilution MIC; assay type: cell-based
# [28] = test system: S. maltophilia ATCC 13637; assay: disk diffusion assay; assay type: cell-based, Stenotrophomas maltophilia; settings: 10 micrograms per disk; 35° C.
# [29] = test system: Pseudomonas aeruginosa ATCC 27853; assay: disk diffusion assay; assay type: cell-based; settings: 10 micrograms per disk; ciprofloxacin 5, vancomycin 30 micrograms per disk; 35° C. Note: key: R = resistant.
# [30] = test system: Candida albicans ATCC 24433; assay: disk diffusion assay; assay type: cell-based; settings: 10 micrograms per disk; 35° C. Note: key: R = resistant.
# [31] = test system: B. subtilis 1A757; assay: microbe, parasite or virus in culture; assay type: cell-based, Bacillus subtilis
# [32] = test system: Listeria monocytogenes 19115; assay: microbroth dilution MIC; assay type: cell-based
# [33] = test system: E. faecium 49624; assay: microbroth dilution MIC; assay type: cell-based, Enterococcus faecium
# [34] = test system: Aspergillus fumigatus; assay: microbroth dilution MIC
# [35] = test system: Streptococcus pneumoniae 700676; assay: microbroth dilution MIC
# [36] = test system: Streptococcus pneumoniae ATCC 49619; assay: disk diffusion assay; assay type: cell-based; settings: 10 micrograms per disk; ciprofloxacin 5, vancomycin 30 micrograms per disk; MHA with 5% dsb. and 5% CO2
# [37] = test system: S. aureus 29213; assay: microbroth dilution MIC; assay type: cell-based, Staphylococcus aureus
# [38] = test system: Enterococcus faecium ATCC 49624; assay: disk diffusion assay; assay type: cell-based; settings: 10 micrograms per disk; ciprofloxacin 5, vancomycin 30 micrograms per disk; 35° C.
substance,measurement,setting,value
munumbicin C,"diameter of the zone of inhibition, Bacillus anthracis K8902",[1],R
same,MIC Cryptococcus neoformans,[2],10 micrograms/ml
same,MIC MRSA 33591,[3],0.5 micrograms/ml
same,LC50 brine shrimp,[4],2.0 micrograms/ml
same,MIC E. faecalis 29212,[5],0.5 micrograms/ml
same,"diameter of the zone of inhibition, Enterococcus faecalis ATCC 51299",[6],22 mm
same,MIC S. epidermis 12228,[7],2 micrograms/ml
same,IC50 M. tuberculosis H37Rv (ATCC 25618) (drug sensitive),[8],>150 micrograms/ml
same,"diameter of the zone of inhibition, Cryptococcus neoformans ATCC 32045",[9],12 mm
same,"diameter of the zone of inhibition, Candida parasilosis ATCC 22019",[10],R
same,"diameter of the zone of inhibition, Escherichia coli ATCC 25922",[11],R
same,"diameter of the zone of inhibition, Candida tropicalis ATCC 750",[12],R
same,"diameter of the zone of inhibition, Acinetobacter sp. ATCC 49137",[13],R
same,"diameter of the zone of inhibition, S. epidermis ATCC 12228",[14],R
same,"diameter of the zone of inhibition, Candida parasdosis ATCC 90018",[15],R
same,"diameter of the zone of inhibition, Enterococcus faecalis ATCC 29212",[16],20 mm
same,MIC Streptococcus pneumoniae 49619,[17],0.125 micrograms/ml
same,"diameter of the zone of inhibition, Neisseria gonnorhea ATCC 49226",[18],8 mm
same,MIC Staphylococccus simulans 11631,[19],1 micrograms/ml
same,"diameter of the zone of inhibition, Candida albicans ATCC 90028",[20],R
same,MIC Bacillus subtilis,[21]; first listing in Table 4,>8 micrograms/ml
same,MIC Bacillus subtilis,[21]; second listing in Table 4,0.25 micrograms/ml
same,MIC Staphylococccus aureus 27734,[22],0.5 micrograms/ml
same,"diameter of the zone of inhibition, Saccharomyces cerevisiae ATCC 9763",[23],R
same,"diameter of the zone of inhibition, Vibrio fischeri PIC 345",[24],9 mm
same,MIC Listeria monocytogenes 19114,[25],4 micrograms/ml
same,"diameter of the zone of inhibition, Candida glabrata ATCC 2001",[26],R
same,MIC Enterococcus faecalis ATCC 51299,"[27]; resistant to vancomycin, first listing in Table 4",16 micrograms/ml
same,MIC E. faecalis VRE 51299,[27]; third listing in Table 4,0.5 micrograms/ml
same,"diameter of the zone of inhibition, S. maltophilia ATCC 13637",[28],R
same,"diameter of the zone of inhibition, Pseudomonas aeruginosa ATCC 27853",[29],R
same,"diameter of the zone of inhibition, Candida albicans ATCC 24433",[30],R
same,increase of MICs when DNA was added,"[31]; Bacillus subtilis and Staphylococcus aureus, 20 micrograms per well sheared salmon sperm DNA",affected
same,MIC B. subtilis 1A757,"[31]; DNA +, 20 micrograms per well of sheared salmon sperm DNA",>32 micrograms/ml
same,MIC B. subtilis 1A757,[31]; DNA −,0.5 micrograms/ml
same,MIC Listeria monocytogenes 19115,[32],2 micrograms/ml
same,MIC E. faecium 49624,[33],0.5 micrograms/ml
same,MIC Aspergillus fumigatus,[34],20 micrograms/ml
same,MIC Streptococcus pneumoniae 700676,[35],0.125 micrograms/ml
same,"diameter of the zone of inhibition, Streptococcus pneumoniae ATCC 49619",[36],7 mm
same,MIC S. aureus 29213,[37],1 micrograms/ml
same,"diameter of the zone of inhibition, Enterococcus faecium ATCC 49624",[38],23 mm
